Data as given in patent US20260285847A1, “SYMMETRIC AMINOINDOLE-LINKED TRIAZINE FOR A DUAL EFFECT ON ALPHA-SYNUCLEIN AND TAU ISOFORM 2N4R FIBRILLIZATION” (Purdue Research Foundation, priority 2023, published 2026).
Entries after “also recorded” stand apart in the source; their conditions may differ.

Legend:
alpha-synuclein (α-syn) = biological target: T1, alpha-synuclein (α-syn) (Homo sapiens, UniProt P37840); experiment: Thioflavin T (ThT) fluorescence assay of α-syn fibril formation; type: biochemical; conditions: compound 100 μM
T1 construct: purchased rPeptide
Experimental: Thioflavin fluorescence assays. Thioflavin fluorescence assays were used to monitor fibril formation of recombinant α-syn, tau isoform 2N4R, treated with control DMSO and different compounds. Kinetics of α-syn fibrillization were performed using thioflavin T (ThT) as published previously.^32′ ^37 The fluorescence emission experiments were performed with the excitation and emission wavelengths set at 440 and 485 nm, respectively, with a Synergy HT multi-mode microplate reader (BioTek, Winooski, VT). Samples were measured in three replicates and the experiments were repeated three times using at least two different stock solutions. For each time point, arbitrary units of fluorescence were calculated from the mean values normalized against the maximum value in each completed assay. All results contained in FIG. 1 were presented as mean±SEM.
FIG. 1. Chemical structure, physicochemical descriptors, and the effect of compounds on alpha-synuclein (α-syn) aggregation measured as fluorescence intensity using ThT assay. TPSA, Log P, and Log D were obtained with SwissADME. BBB and pKa were obtained from the Blood-Brain Barrier Prediction Server (https://www.cbligand.org/BBB/) and Chemaxon, respectively. CNS MPO scores were assessed as published previously, The ThT (%) represent the maximum fluorescence intensity obtained at the plateau phase of the kinetics of fibrillization using 6.25 μM of α-syn. Compounds were tested at 100 μM (molar ratio 1:16). BBB, blood-brain barrier; C log D, calculated distribution coefficient at 7.4; C log P, calculated partition coefficient; CNS MPO, Central Nervous System Multi Parameter Optimization; HBA, Hydrogen Bond Acceptor; HBD, Hydrogen Bond Donor; LR5, Lipinski's rule of five; pKa, negative log of acid dissociation constant; ThT, Thioflavin T; TPSA, Topological polar surface area.

tau isoform 2N4R [1] = biological target: T2, tau isoform 2N4R (Homo sapiens, UniProt P10636); experiment: ThT fluorescence assay of tau isoform 2N4R fibril formation; type: biochemical; conditions: compound 100 μM, tau 2N4R 6 μM, heparin 1.5 μM
T2 construct: made in house; host or cells: E. coli BL21(DE3)
T2 sequence (P10636 1-441 isoform P10636-8): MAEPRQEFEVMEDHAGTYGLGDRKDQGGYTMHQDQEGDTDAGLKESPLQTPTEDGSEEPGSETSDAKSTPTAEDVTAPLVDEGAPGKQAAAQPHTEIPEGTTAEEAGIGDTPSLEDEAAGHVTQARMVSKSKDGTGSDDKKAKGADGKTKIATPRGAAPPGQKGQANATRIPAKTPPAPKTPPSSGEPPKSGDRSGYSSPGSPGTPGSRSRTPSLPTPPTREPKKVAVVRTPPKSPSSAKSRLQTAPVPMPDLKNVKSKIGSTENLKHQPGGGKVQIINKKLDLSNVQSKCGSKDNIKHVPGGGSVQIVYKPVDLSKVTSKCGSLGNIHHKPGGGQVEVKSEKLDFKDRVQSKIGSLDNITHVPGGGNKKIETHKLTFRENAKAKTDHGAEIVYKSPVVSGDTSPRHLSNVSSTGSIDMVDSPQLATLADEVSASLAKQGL
Experimental: (§1) Chemical and peptide source. DMSO and thioflavin-T (ThT) were purchased from Alfa Aesar (Ward Hill, MA). Procuration of recombinant α-syn was from rPeptide (WatKinsville, GA). The recombinant p-tau isoform 1N4R was prepared as published previously.^31, 36 Concerning the preparation of tau 2N4R, bacterial expression plasmid consisting of the vector pRK172 carrying a cDNA encoding the human Tau 2N4R isoform was a kind gift of Dr. David Eliezer (Weill Cornell Medicine). For protein expression, E. coli BL21(DE3) cells were transformed with the plasmid and grown in LB media supplemented with ampicillin (100 μg/mL). Protein over-expression was induced by the addition of 1 mM IPTG for 4 h at 37° C., and cells were pelleted by centrifugation at 6,000 g for 15 min at 4° C. The cells were resuspended in lysis buffer (20 mM MES, 400 mM NaCl, 0.2 mM MgCl2, 1 mM EGTA, protease inhibitor cocktail (P8340, Sigma Aldrich), 0.25 mg/mL lysozyme, and 1 μg/mL DNase I, pH 6.8) and lysed by a French press cell disruptor at 4° C., and the lysate was boiled for 20 min. Denatured proteins were pelleted by centrifugation at 30,000 g for 30 min at 4° C., and the supernatant was dialyzed overnight against cation exchange buffer (20 mM MES, 50 mM NaCl, 1 mM MgCl2, 1 mM EGTA, 2 mM DTT, 0.1 mM PMSF, pH 6.8). The dialysate was loaded onto a HiPrep SP HP column, and proteins were eluted with a linear gradient ranging from 50 mM to 1 M NaCl. Fractions containing tau isoform 2N4R were pooled, and the resulting protein solution was dialyzed against PBS (pH 7.4) and stored at −80° C.

α-syn [2] = biological target: T3, α-syn (Homo sapiens, UniProt P37840); experiment: PICUP cross-linking assay of α-syn oligomer formation; type: biochemical; conditions: compound 50 μM; high molecular weight oligomers around 50 kDa
T3 construct: purchased rPeptide
Experimental: PICUP is a technique in which oligomer formation is induced by cross-linking. To induce oligomerization by cross-linking, α-syn (from Rpeptide, LLC) and tau isoform 2N4R were diluted in 10 mM phosphate buffer (pH 7.4) to reach a final concentration of 10 μM. Different compounds were added to the protein solution at a final concentration of 50 μM, resulting in a molar ratio of 1:5. To confirm the gradual effect of compounds on the inhibition of α-syn oligomerization, compounds were tested at final concentration of 3.125, 6.25, 12.5, 25, and 50 μM. The controls consisted of samples without light exposition, without Ru(bpy) or ammonium persulfate, and without compound (i.e., 0.125% DMSO). The cross-linking reaction was initiated by the addition of 2 μL of Ru(bpy) (300 μM final concentration) and 2 μL ammonium persulfate (6 mM final concentration).^32 Samples were irradiated immediately. Light exposure was of a 1 second duration for α-syn and a 3 second duration for tau isoform 2N4R, with a 53 W (120 V) incandescent lamp installed in a homemade dark-box. Each tube contained a final volume of 20 μL. After irradiation, 8.3 μL of Laemmli loading buffer containing 15% 0-mercaptoethanol was immediately added to the solution, followed by incubation at 95° C. for 10 min. The cross-linked samples were separated on a 16% SDS-PAGE gel and visualized by Coomassie blue staining.

tau isoform 2N4R [3] = biological target: T2, tau isoform 2N4R; experiment: PICUP cross-linking assay of tau oligomer formation; type: biochemical; conditions: compound 50 μM; high molecular weight oligomers around 190 kDa
Experimental: as §1
PICUP is a technique in which oligomer formation is induced by cross-linking. To induce oligomerization by cross-linking, α-syn (from Rpeptide, LLC) and tau isoform 2N4R were diluted in 10 mM phosphate buffer (pH 7.4) to reach a final concentration of 10 μM. Different compounds were added to the protein solution at a final concentration of 50 μM, resulting in a molar ratio of 1:5. […]

α-syn [4] = biological target: T3, α-syn; experiment: Transmission electron microscopy (TEM) of α-syn fibrils; type: biochemical; conditions: protein 60 μM, compound 600 μM (1:10), 24 hours at 37° C.
Experimental: To confirm the general anti-fibrillar effect of compound 10, transmission electron microscopy (TEM) was used as an orthogonal assay. After incubating recombinant proteins (at 60 μM) with 600 μM compound 10 for 24 hours at 37° C., TEM was utilized to detect fibril formation.^32 A volume of 10 μL was applied on a 400-mesh Formvar-carbon-coated copper grid (Electron Microscopy Sciences, Hatfield, PA). The grids were incubated for 1 minute and washed three times with distilled water. They were carefully air-dried and incubated for 1 minute in a fresh solution of 1% uranyl acetate. Samples were air-dried and observed using a transmission microscope. Visualization of the grids was performed with transmission electron microscopy (JEOL 1400 Flash, Japan). Acquisition of pictures was performed with the following settings: accelerating voltage of 100 kV and magnification of 40k.

tau isoform 2N4R [5] = biological target: T2, tau isoform 2N4R; experiment: TEM of tau isoform 2N4R fibrils; type: biochemical; conditions: protein 60 μM, compound 600 μM (1:10), 24 hours at 37° C.
Experimental: as §1
To confirm the general anti-fibrillar effect of compound 10, transmission electron microscopy (TEM) was used as an orthogonal assay. After incubating recombinant proteins (at 60 μM) with 600 μM compound 10 for 24 hours at 37° C., TEM was utilized to detect fibril formation.^32 A volume of 10 μL was applied on a 400-mesh Formvar-carbon-coated copper grid (Electron Microscopy Sciences, Hatfield, PA). The grids were incubated for 1 minute and washed three times with distilled water. […]

[6] = test system: M17D-TR/αS3K::YFP neuroblastoma cells; experiment: α-syn inclusion formation in dox-inducible neuroblastoma cells; type: cell-based
Experimental: The dox-inducible neuroblastoma cell line M17D-TR/αS3K::YFP was used to evaluate the effect of compounds in preventing the formation of inclusion following induction with Dox. Dox-inducible neuroblastoma cells M17D-TR/αS-3K::YFP have been used previously. 96-well plates were used with cellular density of 30,000 cells per well. Compounds were added after 24 h and aS-3K::YFP transgene expression was induced […]. Induction was done by adding 1 μg per mL (final concentration) dox to culture media. Cells were incubated in the Incucyte Zoom 2000 platform (Essen Biosciences) and images (green, bright field) were taken continuously. Endpoint analysis of inclusion formation or growth was performed 48 h after induction (96 h after plating). The Incucyte processing definition ‘Inclusions’ was created as follows: Parameters, Fixed Threshold, Threshold (GCU) 50; Edge Split On, Edge Sensitivity 100; Cleanup, Hole Fill (μm^2): 10, Adjust Size (pixels): 0; Filters, Area (μm^2): max 50, Mean Intensity: min 60, Integrated Intensity: min 2000. […] As described previously for the evaluation of protein expression by SDS-PAGE and Western Blotting in the LiCor system, αS-specific monoclonal antibody 4B12 (Thermofisher, Waltham, MA; 1:1000) and a polyclonal antibody to GAPDH (Sigma-Aldrich, St. Louis, MO, G9545; 1:5000) were used.

tau isoform 2N4R fibrillization (in words) (tau isoform 2N4R [1]) | ThT fluorescence intensity (FI), maximum at the plateau phase of α-syn fibrillization (alpha-synuclein (α-syn); α-syn 6.25 μM (molar ratio 1:16), compared with DMSO control, mean±SEM, 100 µM) | activity at 100 µM (alpha-synuclein (α-syn); α-syn 6.25 μM (molar ratio 1:16), compared with DMSO control, mean±SEM, read-out: ThT fluorescence intensity (FI), maximum at the plateau phase of α-syn fibrillization) | SMILES | inhibition of α-syn aggregation / fibril formation (in words) (alpha-synuclein (α-syn); ThT assay) | α-syn oligomer formation (PICUP, in words) (α-syn [2]) | tau oligomer formation (PICUP, in words) (tau isoform 2N4R [3]) | α-syn fibril ultrastructure (TEM) (α-syn [4]) | tau isoform 2N4R fibril ultrastructure (TEM) (tau isoform 2N4R [5]) | α-syn expression levels (Western blot) ([6]; compound 10 μM) | α-syn expression levels (Western blot) ([6]; compound 2.5 and 20 μM) | α-syn inclusion formation (punctate YFP signal, in words) ([6]; compound 7: 2.5 to 20 μM, compound 10: 2.5 to 40 μM, readout 96 h after plating, vs 0.1% DMSO)
failed to reduce tau fibril formation | – | – | c1cc(Oc2ncnc(Oc3cccc4[nH]ccc34)n2)c2cc[nH]c2c1 [Compound 7, 4-{[4-(1H-indol-4-yloxy)-1,3,5-triazin-2-yl]oxy}-1H-indole] | nonexistent anti-fibrillar activity; also recorded: weak effect on fibril formation | did not reduce the formation of α-syn and tau oligomers | did not reduce the formation of α-syn and tau oligomers | packets of fine fibrils with a few spherical structures encountered on the grid | fibrils surrounded by debris admixed with disrupted fibrils | reduced | reduced | very minimal changes in the numbers of inclusion
– | −0.3±0.5% | – | Clc1nc(Nc2ccc3cc[nH]c3c2)nc(Nc2ccc3cc[nH]c3c2)n1 [Compound 24] | – | – | – | – | – | – | – | –
– | – | 21.5 ± 7.9% | c1cc(Nc2nc(Nc3cccc4[nH]ccc34)nc(Nc3cccc4[nH]ccc34)n2)c2cc[nH]c2c1 [Compound 25] | – | – | – | rare short fibrils | medium size needle-shaped fibrils | – | – | –
